Here are results for 18 compounds from patent US4551445A, “Derivatives of arginine vasopressin antagonists” (The Medical College of Ohio, priority 1983, dated 1985).

The test system of test [1] is antidiuretic response to arginine vasopressin (ADH). The test can be described thus: Anti-antidiuretic: antagonism of the antidiuretic response to subsequent injections of vasopressin. It counts as in vivo, rats. The following applies: for Anti-Antidiuretic pA2: estimated in vivo pA2, volume of distribution 67 ml/kg. The protocol:
Activity as antidiuretic agonists was determined by intravenous injection of the compounds being evaluated in ethanol-anesthesized water-loaded rats in accordance with Sawyer, Endocrinology, vol. 63 (1958) at 694. Antagonism of the response to subsequent injections of vasopressin was tested as described by Sawyer et al., Science, vol. 212 (1981) at 49.
(§1) Antagonistic potencies were determined and expressed as "effective doses" and pA2 values. The "effective dose" is defined as the dose (in nanomoles per kilogram) that reduces the response seen from 2x units of agonist injected 20 min after the dose of antagonist to the response with 1x units of agonist. Estimated in vivo "pA2 " values represent the negative logarithms of the effective doses, divided by the estimated volume of distribution (67 ml/kg).

The test system of test [2] is vasopressor response to arginine vasopressin. The test is described as follows: Antivasopressor: antagonism to the vasopressor response (Dyckes et al.). It counts as in vivo. The following applies: for Antivasopressor pA2: Table 1, estimated in vivo pA2; for Antagonistic Activities Antivasopressor pA2: table. The method, then:
Antagonism to the vasopressor response was estimated in accordance with Dyckes et al., J. Med. Chem., vol. 17 (1974) at 969. The values are expressed as pA2 values, defined as in Schild et al., Br. J. Pharmacol., vol. 2 (1947) at 189.
as §1

Starred links: 1 amine or outer side, 2 acyl side, 3 side chain; linkers in the order of their positions; H or OH if unused. Positions of bridges follow the written chain, without caps; N, C: chain ends. Non-standard residues stand in square brackets, D forms with d. Residues, ends and D or L forms follow the SMILES beside them. X1 = O=C(CC1(S[*:2])CCCCC1)[*:1]; Nle = CCCC[C@H](N)C(=O)O; Nva = CCC[C@H](N)C(=O)O

With “[1-(β-mercapto-β,β-cyclopentamethylenepropionic acid), 2-D-phenylalanine, 4-leucine, 7-hydroxyproline]-arginine vasopressin [d(CH2)5 D-Phe^2 Ile^4 Hy-Pro^7 AVP]”, the “Anti-Antidiuretic ED” value in test [1] (Table 2, effective dose) turned out to be 1.3 ± 0.3 nmol/kg. Moreover, the “Anti-Antidiuretic pA2” value in test [1] (Table 2) is listed as 7.74. In addition, the “Antivasopressor Potency ED” value in test [2] (Table 2, effective dose) worked out at 0.9 ± 0.2 nmol/kg. The AD/VP in test [2] (Table 2, ratio, values fit antivasopressor ED / anti-antidiuretic ED) worked out at 0.7. On to `CCOc1ccc(C[C@@H]2NC(=O)CC3(CCCCC3)SSC[C@@H](C(=O)N3CCC[C@@H]3C(=O)N[C@@H](CCCNC(=N)N)C(=O)NCC(N)=O)NC(=O)[C@H](CC(N)=O)NC(=O)[C@H](C(C)C)NC(=O)[C@H](Cc3ccccc3)NC2=O)cc1` [d(CH2)5 Tyr(Et)^2 D-Pro^7 VAVP] (Y(Et)FVNC[dP]RG-NH2; linker N-5 via X1), for which the “Anti-Antidiuretic pA2” value in test [1] (Table 1) is on record as 6.32 ± 0.11. Also, the “Antivasopressor pA2” value in test [2] is recorded as 8.23 ± 0.13.

Regarding `COc1ccc(C[C@H]2NC(=O)CC3(CCCCC3)SSC[C@@H](C(=O)N3CCC[C@H]3C(=O)N[C@@H](CCCNC(=N)N)C(=O)NCC(N)=O)NC(=O)[C@H](CC(N)=O)NC(=O)[C@H](C(C)C)NC(=O)[C@H](Cc3ccccc3)NC2=O)cc1` [d(CH2)5 --D-Tyr(Me)VAVP] ([dY](Me)FVNCPRG-NH2; linker N-5 via X1), the “Anti-Antidiuretic pA2” value in test [1] (Table 1) is 7.77 ± 0.07. Moreover, in test [2], the “Antivasopressor pA2” value is listed as 8.48 ± 0.08. The corresponding values for `COc1ccc(C[C@@H]2NC(=O)CC3(CCCCC3)SSC[C@@H](C(=O)N3CCC[C@H]3C(=O)N[C@H](CCCNC(=N)N)C(=O)NCC(N)=O)NC(=O)[C@H](CC(N)=O)NC(=O)[C@H](C(C)C)NC(=O)[C@H](Cc3ccccc3)NC2=O)cc1` [d(CH2)5 Tyr(Me)VDAVP, [1-(β-mercapto-β,β-cyclopentamethylenepropionic acid), 2-O-methyltyrosine, 4-valine, 8-D-arginine]vasopressin] (Y(Me)FVNCP[dR]G-NH2; linker N-5 via X1) are 6.68 ± 0.11 and 8.44 ± 0.07. As for `CCOc1ccc(C[C@@H]2NC(=O)CC3(CCCCC3)SSC[C@@H](C(=O)N3CCC[C@H]3C(=O)N[C@@H](CCCNC(=N)N)C(=O)NCC(N)=O)NC(=O)[C@H](CC(N)=O)NC(=O)[C@H](CCC(N)=O)NC(=O)[C@H](Cc3ccccc3)NC2=O)cc1` [d(CH2)5 Tyr(Et)AVP, reference compound] (Y(Et)FQNCPRG-NH2; linker N-5 via X1), the “Antagonistic Activities Antivasopressor pA2” value in test [2] was 8.47 ± 0.04. With `CCOc1ccc(C[C@H]2NC(=O)CC3(CCCCC3)SSC[C@@H](C(=O)N3CCC[C@@H]3C(=O)N[C@@H](CCCNC(=N)N)C(=O)NCC(N)=O)NC(=O)[C@H](CC(N)=O)NC(=O)[C@H](C(C)C)NC(=O)[C@H](Cc3ccccc3)NC2=O)cc1` [d(CH2)5 D-Tyr(Et)^2 D-Pro^7 VAVP] ([dY](Et)FVNC[dP]RG-NH2; linker N-5 via X1), in test [1] (Table 1), the “Anti-Antidiuretic pA2” value is on record as 7.64 ± 0.08. For the same compound, the “Antivasopressor pA2” value in test [2] is given as 8.10 ± 0.06. For `CCOc1ccc(C[C@H]2NC(=O)CC3(CCCCC3)SSC[C@@H](C(=O)N3CCC[C@H]3C(=O)N[C@@H](CCCNC(=N)N)C(=O)NCC(N)=O)NC(=O)[C@H](CC(N)=O)NC(=O)[C@H](C(C)C)NC(=O)[C@H](Cc3ccccc3)NC2=O)cc1` [d(CH2)5 --D-Tyr(Et)VAVP] ([dY](Et)FVNCPRG-NH2; linker N-5 via X1) the same measures were 7.81 ± 0.07 and 8.22 ± 0.12. For `CC[C@@H](C)[C@H]1NC(=O)CC2(CCCCC2)SSC[C@@H](C(=O)N2CCC[C@H]2C(=O)N[C@@H](CCCNC(=N)N)C(=O)NCC(N)=O)NC(=O)[C@H](CC(N)=O)NC(=O)[C@H](C)NC(=O)[C@H](Cc2ccccc2)NC1=O` [d(CH2)5 D-Ile^2 Ala^4 AVP, [1-(β-mercapto-β,β-cyclopentamethylenepropionic acid), 2-D-isoleucine, 4-alanine]-arginine vasopressin] ([dI]FANCPRG-NH2; linker N-5 via X1), the “Anti-Antidiuretic pA2” value in test [1] (Table 2) is given as 7.76.

Turning to `CC(C)[C@@H]1NC(=O)[C@H](Cc2ccccc2)NC(=O)[C@@H](Cc2ccccc2)NC(=O)CC2(CCCCC2)SSC[C@@H](C(=O)N2CCC[C@H]2C(=O)N[C@@H](CCCNC(=N)N)C(=O)NCC(N)=O)NC(=O)[C@H](CC(N)=O)NC1=O` [d(CH2)5 D-Phe^2 VAVP] ([dF]FVNCPRG-NH2; linker N-5 via X1), the “Anti-Antidiuretic pA2” value in test [1] (Table 2) is given as 8.06. In the case of `COc1ccc(C[C@@H]2NC(=O)CC3(CCCCC3)SSC[C@@H](C(=O)N3CCC[C@H]3C(=O)N[C@@H](CCCNC(=N)N)C(=O)NCC(N)=O)NC(=O)[C@H](CC(N)=O)NC(=O)[C@H](CCC(N)=O)NC(=O)[C@H](Cc3ccccc3)NC2=O)cc1` [d(CH2)5 Tyr(Me)AVP, [1-(β-mercapto-β,β-cyclopentamethylenepropionic acid), 2-O-methyltyrosine]-arginine vasopressin, reference compound] (Y(Me)FQNCPRG-NH2; linker N-5 via X1), in test [2], the “Antivasopressor pA2” value is 8.62 ± 0.03 and the “Antagonistic Activities Antivasopressor pA2” value is on record as 8.62 ± 0.03. Regarding `CC(C)C[C@@H]1NC(=O)[C@H](Cc2ccccc2)NC(=O)[C@@H](Cc2ccccc2)NC(=O)CC2(CCCCC2)SSC[C@@H](C(=O)N2CCC[C@H]2C(=O)N[C@@H](CCCNC(=N)N)C(=O)NCC(N)=O)NC(=O)[C@H](CC(N)=O)NC1=O` [d(CH2)5 D-Phe^2 Leu^4 AVP, [1-(β-mercapto-β,β-cyclopentamethylenepropionic acid), 2-D-phenylalanine, 4-leucine]-arginine vasopressin] ([dF]FLNCPRG-NH2; linker N-5 via X1), the “Anti-Antidiuretic pA2” value in test [1] (Table 2) was 6.07.

For `CC[C@@H](C)[C@H]1NC(=O)CC2(CCCCC2)SSC[C@@H](C(=O)N2CCC[C@H]2C(=O)N[C@@H](CCCNC(=N)N)C(=O)NCC(N)=O)NC(=O)[C@H](CC(N)=O)NC(=O)[C@H](CCC(N)=O)NC(=O)[C@H](Cc2ccccc2)NC1=O` [d(CH2)5 D-Ile^2 AVP, [1-(β-mercapto-β,β-cyclopentamethylenepropionic acid), 2-D-isoleucine]-arginine vasopressin] ([dI]FQNCPRG-NH2; linker N-5 via X1), the “Anti-Antidiuretic pA2” value in test [1] (Table 2) is given as 6.96. Same read-out and setting: to `N=C(N)NCCC[C@H](NC(=O)[C@@H]1CCCN1C(=O)[C@@H]1CSSC2(CCCCC2)CC(=O)N[C@H](Cc2ccccc2)C(=O)N[C@@H](Cc2ccccc2)C(=O)NCC(=O)N[C@@H](CC(N)=O)C(=O)N1)C(=O)NCC(N)=O` [d(CH2)5 D-Phe^2 Gly^4 AVP, [1-(β-mercapto-β,β-cyclopentamethylenepropionic acid), 2-D-phenylalanine, 4-glycine]-arginine vasopressin] ([dF]FGNCPRG-NH2; linker N-5 via X1) belongs 5.85; to `CC[C@@H](C)[C@H]1NC(=O)CC2(CCCCC2)SSC[C@@H](C(=O)N2CCC[C@H]2C(=O)N[C@@H](CCCNC(=N)N)C(=O)NCC(N)=O)NC(=O)[C@H](CC(N)=O)NC(=O)[C@H](C(C)C)NC(=O)[C@H](Cc2ccccc2)NC1=O` [d(CH2)5 D-Ile^2 VAVP, [1-(β-mercapto-β,β-cyclopentamethylenepropionic acid), 2-D-isoleucine, 4-valine]-arginine vasopressin] ([dI]FVNCPRG-NH2; linker N-5 via X1), 7.98. Same read-out and setting: to `C[C@@H]1NC(=O)[C@H](Cc2ccccc2)NC(=O)[C@@H](Cc2ccccc2)NC(=O)CC2(CCCCC2)SSC[C@@H](C(=O)N2CCC[C@H]2C(=O)N[C@@H](CCCNC(=N)N)C(=O)NCC(N)=O)NC(=O)[C@H](CC(N)=O)NC1=O` [d(CH2)5 D-Phe^2 Ala^4 AVP, [1-(β-mercapto-β,β-cyclopentamethylenepropionic acid), 2-D-phenylalanine, 4-alanine]-arginine vasopressin] ([dF]FANCPRG-NH2; linker N-5 via X1) belongs 7.52; to `N=C(N)NCCC[C@H](NC(=O)[C@@H]1CCCN1C(=O)[C@@H]1CSSC2(CCCCC2)CC(=O)N[C@H](Cc2ccccc2)C(=O)N[C@@H](Cc2ccccc2)C(=O)N[C@@H](Cc2ccccc2)C(=O)N[C@@H](CC(N)=O)C(=O)N1)C(=O)NCC(N)=O` [d(CH2)5 D-Phe^2 Phe^4 AVP, [1-(β-mercapto-β,β-cyclopentamethylenepropionic acid), 2-D-phenylalanine, 4-phenylalanine]-arginine vasopressin] ([dF]FFNCPRG-NH2; linker N-5 via X1), 6.07; to `CCCC[C@@H]1NC(=O)[C@H](Cc2ccccc2)NC(=O)[C@@H](Cc2ccccc2)NC(=O)CC2(CCCCC2)SSC[C@@H](C(=O)N2CCC[C@H]2C(=O)N[C@@H](CCCNC(=N)N)C(=O)NCC(N)=O)NC(=O)[C@H](CC(N)=O)NC1=O` [d(CH2)5 D-Phe^2 Nle^4 AVP, [1-(β-mercapto-β,β-cyclopentamethylenepropionic acid), 2-D-phenylalanine, 4-norleucine]-arginine vasopressin] ([dF]F[Nle]NCPRG-NH2; linker N-5 via X1), 7.12. On the same count and under the same terms, in the case of `CCC[C@@H]1NC(=O)[C@H](Cc2ccccc2)NC(=O)[C@@H](Cc2ccccc2)NC(=O)CC2(CCCCC2)SSC[C@@H](C(=O)N2CCC[C@H]2C(=O)N[C@@H](CCCNC(=N)N)C(=O)NCC(N)=O)NC(=O)[C@H](CC(N)=O)NC1=O` [d(CH2)5 D-Phe^2 Nva^4 AVP, [1-(β-mercapto-β,β-cyclopentamethylenepropionic acid), 2-D-phenylalanine, 4-norvaline]-arginine vasopressin] ([dF]F[Nva]NCPRG-NH2; linker N-5 via X1) it was 6.99.
